# From patent US12435044B2, “Pyridazinone herbicides and pyridazinone intermediates used to prepare a herbicide” (FMC Corporation, priority 2018, dated 2025)
# Key:
# Type in all cases: in vivo
# [1] = test system: winter wheat (TRZAW; Triticum aetivum, cv. Arezzo); test: Test M postemergence, mixtures of Cpd. No. 20 with isoxadifen-ethyl, cloquintocet-mexyl or Mefenpyr-diethyl; details: approx. 14 d, second component alone 31 g a.i./ha
# Text: (§1) This test evaluated the effect of mixtures of Cpd. No. 20 with isoxadifen-ethyl, or cloquintocet-mexyl, or Mefenpyr-diethyl on several plant species. Seeds of plant species selected from corn (ZEAMD; Zea mays, cv. ‘Pioneer 1184’), soybean (GLXMA; Glycine max, cv. Pioneer 35T58), winter wheat (TRZAW; Triticum aetivum, cv. Arezzo), winter barley (HORVW; Hordeum vulgare, cv. Boone), rice (ORYSS; Oryza sativa, cv. M202), and giant foxtail (SETFA; Setaria faberi) were planted in pots containing Redi-Earth® planting medium (Scotts Company, 14111 Scottslawn Road, Marysville, Ohio 43041) comprising spaghnum peat moss, vermiculite, wetting agent and starter nutrients and treated postemergence using test chemicals formulated in a non-phytotoxic solvent mixture which included a surfactant. Plants ranged in height from 7 to 10 cm and were in the one- to two-leaf stage for the postemergence treatment. Treated plants and untreated controls were maintained in a greenhouse for approximately 14 d, after which time all treated plants were compared to untreated controls and visually evaluated for injury. Plant response ratings, summarized in Tables M1 to M3, are based on a 0 to 100 scale where 0 is no effect and 100 is complete control. A dash (-) response means no test result. Test results are presented as a mean of 3 reps.
# [2] = test system: corn (ZEAMD; Zea mays, cv. ‘Pioneer 1184’); test: as above; details: approx. 14 d, second component alone 31 g a.i./ha
# Text: as §1
# [3] = test system: winter barley (HORVW; Hordeum vulgare, cv. Boone); test: as above; details: approx. 14 d, second component alone 31 g a.i./ha
# Text: as §1
# [4] = test system: soybean (GLXMA; Glycine max, cv. Pioneer 35T58); test: as above; details: approx. 14 d, second component alone 31 g a.i./ha
# Text: as §1
# [5] = test system: rice (ORYSS; Oryza sativa, cv. M202); test: as above; details: approx. 14 d, second component alone 31 g a.i./ha
# Text: as §1
# [6] = test system: giant foxtail (SETFA; Setaria faberi); test: as above; details: approx. 14 d, second component alone 31 g a.i./ha
# Text: as §1
# [7] = test system: winter wheat (TRZAW; Triticum aetivum, cv. Arezzo); test: Test of Tables L1 to L3, postemergence, mixtures of Cpd. No. 20 with benoxacor, isoxadifen-ethyl, or cloquintocet-mexyl
# Text: as §1, with “with benoxacor,” for “with”, “or cloquintocet-mexyl” for “or cloquintocet-mexyl, or Mefenpyr-diethyl”, “Arezzo),” for “Arezzo), winter barley (HORVW; Hordeum vulgare, cv. Boone),”, “Tables L1” for “Tables M1”, “to L3,” for “to M3,”, “of 4” for “of 3”
# [8] = test system: corn (ZEAMD; Zea mays, cv. ‘Pioneer 1184’); test: as above
# Text: as §1, with “with benoxacor,” for “with”, “or cloquintocet-mexyl” for “or cloquintocet-mexyl, or Mefenpyr-diethyl”, “Arezzo),” for “Arezzo), winter barley (HORVW; Hordeum vulgare, cv. Boone),”, “Tables L1” for “Tables M1”, “to L3,” for “to M3,”, “of 4” for “of 3”
# [9] = test system: soybean (GLXMA; Glycine max, cv. Pioneer 35T58); test: as above
# Text: as §1, with “with benoxacor,” for “with”, “or cloquintocet-mexyl” for “or cloquintocet-mexyl, or Mefenpyr-diethyl”, “Arezzo),” for “Arezzo), winter barley (HORVW; Hordeum vulgare, cv. Boone),”, “Tables L1” for “Tables M1”, “to L3,” for “to M3,”, “of 4” for “of 3”
# [10] = test system: rice (ORYSS; Oryza sativa, cv. M202); test: as above
# Text: as §1, with “with benoxacor,” for “with”, “or cloquintocet-mexyl” for “or cloquintocet-mexyl, or Mefenpyr-diethyl”, “Arezzo),” for “Arezzo), winter barley (HORVW; Hordeum vulgare, cv. Boone),”, “Tables L1” for “Tables M1”, “to L3,” for “to M3,”, “of 4” for “of 3”
# [11] = test system: giant foxtail (SETFA; Setaria faberi); test: as above
# Text: as §1, with “with benoxacor,” for “with”, “or cloquintocet-mexyl” for “or cloquintocet-mexyl, or Mefenpyr-diethyl”, “Arezzo),” for “Arezzo), winter barley (HORVW; Hordeum vulgare, cv. Boone),”, “Tables L1” for “Tables M1”, “to L3,” for “to M3,”, “of 4” for “of 3”
# [12] = test system: large crabgrass (DIGSA; Digitaria sanguinalis); test: Test H postemergence, mixtures of Cpd. No. 20 with atrazine or glyphosate
# Text: (§2) This test evaluated the effect of mixtures of Cpd. No. 20 with atrazine or glyphosate on several plant species. Seeds of plant species selected from corn (ZEAMD; Zea mays, cv. ‘Pioneer 1184’), soybean (GLXMA; Glycine max, cv. Pioneer 35T58), giant foxtail (SETFA; Setaria faberi), Surinamgrass (BRADC; Brachiaria decumbens), fall panicum (PANDI; Panicum dichotomiflorum), velvetleaf (ABUTH; Abutilon threophrasti), mare's tail (ERICA; Conyza canadensis), barnyardgrass (ECHCG; Echinochloa crus-galli), large crabgrass (DIGSA; Digitaria sanguinalis), palmer amaranth (AMAPA; Amaranthus palmeri), common waterhemp (AMATU; Amaranthus rudis), E. black nightshade (SOLPT; Solanum ptycanthum), and common ragweed (AMBEL; Ambrosia artemisiifolia) were planted in pots containing Redi-Earth® planting medium (Scotts Company, 14111 Scottslawn Road, Marysville, Ohio 43041) comprising spaghnum peat moss, vermiculite, wetting agent and starter nutrients and treated postemergence using test chemicals formulated in a non-phytotoxic solvent mixture which included a surfactant. Plants ranged in height from 2 to 10 cm and were in the one- to two-leaf stage for the postemergence treatment. Treated plants and untreated controls were maintained in a greenhouse for approximately 14 d, after which time all treated plants were compared to untreated controls and visually evaluated for injury. Plant response ratings, summarized in Tables H1 & H2, are based on a 0 to 100 scale where 0 is no effect and 100 is complete control. A dash (-) response means no test result. Test results are presented as a mean of 4 reps.
# [13] = test system: corn (ZEAMD; Zea mays, cv. ‘Pioneer 1184’); test: as above
# Text: as §2
# [14] = test system: E. black nightshade (SOLPT; Solanum ptycanthum); test: as above
# Text: as §2
# [15] = test system: velvetleaf (ABUTH; Abutilon threophrasti); test: as above
# Text: as §2
# [16] = test system: soybean (GLXMA; Glycine max, cv. Pioneer 35T58); test: as above
# Text: as §2
# [17] = test system: barnyardgrass (ECHCG; Echinochloa crus-galli); test: as above
# Text: as §2
# [18] = test system: giant foxtail (SETFA; Setaria faberi); test: as above
# Text: as §2
# [19] = test system: common ragweed (AMBEL; Ambrosia artemisiifolia); test: as above
# Text: as §2
# [20] = test system: common waterhemp (AMATU; Amaranthus rudis); test: as above
# Text: as §2
# [21] = test system: palmer amaranth (AMAPA; Amaranthus palmeri); test: as above
# Text: as §2
# [22] = test system: fall panicum (PANDI; Panicum dichotomiflorum); test: as above
# Text: as §2
# [23] = test system: mare's tail (ERICA; Conyza canadensis); test: as above
# Text: as §2
# [24] = test system: Surinamgrass (BRADC; Brachiaria decumbens); test: as above
# Text: as §2
# [25] = approx. 14 d, Cloquintocet-mexyl alone 31 g a.i./ha
smiles,measurement,setting,value
"CCOC(=O)C1=NN(c2ccc(Cl)cc2Cl)C(C)(C(=O)OCC)C1 (stereo not drawn) [Mefenpyr-diethyl, reference compound]",Plant response rating (0 to 100 scale) TRZAW,[1],0
same,Plant response rating (0 to 100 scale) ZEAMD,[2],0
same,Plant response rating (0 to 100 scale) HORVW,[3],0
same,Plant response rating (0 to 100 scale) GLXMA,[4],0
same,Plant response rating (0 to 100 scale) ORYSS,[5],0
same,Plant response rating (0 to 100 scale) SETFA,[6],0
"CCOC(=O)C1=NOC(c2ccccc2)(c2ccccc2)C1 [Isoxadifen-ethyl, isoxadifen-ethyl, reference compound]",Plant response rating (0 to 100 scale) TRZAW,[1],0
same,Plant response rating (0 to 100 scale) ZEAMD,[2],0
same,Plant response rating (0 to 100 scale) HORVW,[3],0
same,Plant response rating (0 to 100 scale) GLXMA,[4],0
same,Plant response rating (0 to 100 scale) ORYSS,[5],0
same,Plant response rating (0 to 100 scale) SETFA,[6],0
same,"TRZAW plant response rating, 0 to 100 scale",[7]; 31 g a.i./ha,0
same,"ZEAMD plant response rating, 0 to 100 scale",[8]; 31 g a.i./ha,0
same,"GLXMA plant response rating, 0 to 100 scale",[9]; 31 g a.i./ha,10
same,"ORYSS plant response rating, 0 to 100 scale",[10]; 31 g a.i./ha,8
same,"SETFA plant response rating, 0 to 100 scale",[11]; 31 g a.i./ha,0
"CCNc1nc(Cl)nc(NC(C)C)n1 [Atrazine, atrazine]","Observed result (plant response rating), DIGSA",[12]; applied alone at 125 g a.i./ha,0
same,"Observed result (plant response rating), DIGSA",[12]; applied alone at 250 g a.i./ha,0
same,"Observed result (plant response rating), ZEAMD",[13]; applied alone at 125 g a.i./ha,0
same,"Observed result (plant response rating), ZEAMD",[13]; applied alone at 250 g a.i./ha,0
same,"Observed result (plant response rating), SOLPT",[14]; applied alone at 125 g a.i./ha,28
same,"Observed result (plant response rating), SOLPT",[14]; applied alone at 250 g a.i./ha,64
same,"Observed result (plant response rating), ABUTH",[15]; applied alone at 125 g a.i./ha,0
same,"Observed result (plant response rating), ABUTH",[15]; applied alone at 250 g a.i./ha,10
same,"Observed result (plant response rating), GLXMA",[16]; applied alone at 125 g a.i./ha,15
same,"Observed result (plant response rating), GLXMA",[16]; applied alone at 250 g a.i./ha,33
same,"Observed result (plant response rating), ECHCG",[17]; applied alone at 125 g a.i./ha,96
same,"Observed result (plant response rating), ECHCG",[17]; applied alone at 250 g a.i./ha,100
same,"Observed result (plant response rating), SETFA",[18]; applied alone at 125 g a.i./ha,0
same,"Observed result (plant response rating), SETFA",[18]; applied alone at 250 g a.i./ha,0
same,"Observed result (plant response rating), AMBEL",[19]; applied alone at 125 g a.i./ha,48
same,"Observed result (plant response rating), AMBEL",[19]; applied alone at 250 g a.i./ha,80
same,"Observed result (plant response rating), AMATU",[20]; applied alone at 125 g a.i./ha,30
same,"Observed result (plant response rating), AMATU",[20]; applied alone at 250 g a.i./ha,39
same,"Observed result (plant response rating), AMAPA",[21]; applied alone at 125 g a.i./ha,76
same,"Observed result (plant response rating), AMAPA",[21]; applied alone at 250 g a.i./ha,74
same,"Observed result (plant response rating), PANDI",[22]; applied alone at 125 g a.i./ha,0
same,"Observed result (plant response rating), PANDI",[22]; applied alone at 250 g a.i./ha,0
same,"Observed result (plant response rating), ERICA",[23]; applied alone at 125 g a.i./ha,23
same,"Observed result (plant response rating), ERICA",[23]; applied alone at 250 g a.i./ha,83
same,"Observed result (plant response rating), BRADC",[24]; applied alone at 125 g a.i./ha,0
same,"Observed result (plant response rating), BRADC",[24]; applied alone at 250 g a.i./ha,0
"CCCCCC(C)OC(=O)COc1ccc(Cl)c2cccnc12 (stereo not drawn) [Cloquintocet-mexyl, cloquintocet-mexyl, reference compound]",Plant response rating (0 to 100 scale) TRZAW,[1],0
same,Plant response rating (0 to 100 scale) ZEAMD,[2],0
same,Plant response rating (0 to 100 scale) HORVW,[3],0
same,Plant response rating (0 to 100 scale) GLXMA,[4],0
same,Plant response rating (0 to 100 scale) ORYSS,[5],0
same,Plant response rating (0 to 100 scale) SETFA,[6],0
same,Plant response rating (0 to 100 scale) TRZAW,[7]; [25],0
same,Plant response rating (0 to 100 scale) ZEAMD,[8]; [25],0
same,Plant response rating (0 to 100 scale) GLXMA,[9]; [25],0
same,Plant response rating (0 to 100 scale) ORYSS,[10]; [25],0
same,Plant response rating (0 to 100 scale) SETFA,[11]; [25],0
